Experimental data published in patent publication EP1140909B1, “NOVEL INHIBITORS OF FARNESYL-PROTEIN TRANSFERASE” (Schering Corporation, priority 1998, dated 2000).
Values joined by “and” are separate entries in the source; they are usually repeats but may differ in a detail not shown here. Identical values can stand only once.

These compounds were tested against T1, partially purified rat brain farnesyl protein transferase (FPT) (Rattus norvegicus, UniProt Q02293+Q04631) (assay: FPT IC50 in vitro enzyme assay (inhibition of Ras-CVLS farnesylation)). Conditions: inhibition of Ras-CVLS famesylation; methods of WO/10515 or WO 95/10516.
T1 construct: partially purified rat brain farnesyl protein transferase (FPT); from tissue; host or cells: rat brain
T1 sequence (Q02293 whole entry, one chain of several): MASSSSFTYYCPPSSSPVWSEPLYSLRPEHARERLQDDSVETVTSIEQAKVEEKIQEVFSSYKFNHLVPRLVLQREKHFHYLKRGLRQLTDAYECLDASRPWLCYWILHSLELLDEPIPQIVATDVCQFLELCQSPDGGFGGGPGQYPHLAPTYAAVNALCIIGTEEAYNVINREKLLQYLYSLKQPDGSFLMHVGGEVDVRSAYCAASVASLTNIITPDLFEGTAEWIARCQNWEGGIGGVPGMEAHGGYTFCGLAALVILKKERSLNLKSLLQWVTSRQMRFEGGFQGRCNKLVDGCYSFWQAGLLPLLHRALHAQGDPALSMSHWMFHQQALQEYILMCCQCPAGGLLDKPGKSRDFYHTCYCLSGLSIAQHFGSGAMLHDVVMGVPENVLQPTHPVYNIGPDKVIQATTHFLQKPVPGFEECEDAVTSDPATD
Type: biochemical
Method: 1. In vitro enzyme assays: FPT IC50 (inhibition of farnesyl protein transferase, in vitro enzyme assay) are determined by the methods disclosed in […] or WO 95/10516.

Row | IC50 | Structure (SMILES)
1 | 0.18 to 21 nM | CC(c1ccccc1)N1CCN(C(=O)NC2CCCCC2)[C@@H](C(=O)NCCc2cncn2Cc2ccc(C#N)cc2)C1 (stereo partly drawn) [Example 1, N2-[2-[1-[(4-cyanophenyl)methyl]-1H-imidazol-5-yl]ethyl]-N1-cyclohexyl-4-(1-phenylethyl)-1,2(R)-piperazinedicarboxamide]
2 | 0.18 to 21 nM | N#Cc1ccc(Cn2cncc2CCNC(=O)[C@H]2CN(Cc3ccncc3)CCN2C(=O)NC2CCCCC2)cc1 [Example 5]
3 | 0.18 to 21 nM | N#Cc1ccc(Cn2cncc2CCNC(=O)[C@H]2CN(CC3CC4C=CC3C4)CCN2C(=O)NC2CCCCC2)cc1 (stereo partly shown) [Example 6]
4 | 0.18 to 1.5 nM | CC(=O)Nc1ccc(CN2CCN(C(=O)NC3CCCCC3)[C@@H](C(=O)NCCc3cncn3Cc3ccc(C#N)cc3)C2)cc1 [Example 20]
5 | 0.18 to 1.5 nM | N#Cc1ccc(Cn2cncc2CCNC(=O)[C@H]2CN(Cc3cccc(Cl)c3)CCN2C(=O)NC2CCCCC2)cc1 [Example 25]
6 | 0.18 to 1.5 nM | COc1cccc(CN2CCN(C(=O)NC3CCCCC3)[C@@H](C(=O)NCCc3cncn3Cc3ccc(C#N)cc3)C2)c1 [Example 26]
7 | 0.18 to 1.5 nM | COc1ccccc1CN1CCN(C(=O)NC2CCCCC2)[C@@H](C(=O)NCCc2cncn2Cc2ccc(C#N)cc2)C1 [Example 27]
8 | 0.18 to 21 nM | CCCC(=O)N1CCN(Cc2ccccc2)CC1C(=O)NCCc1cncn1Cc1ccc(C#N)cc1 (stereo not shown) [Example 28F]
9 | 0.18 to 21 nM | N#Cc1ccc(Cn2cncc2CCNC(=O)C2CN(Cc3ccccc3)CCN2C(=O)c2ccccc2)cc1 (stereo not shown) [Example 28G]
10 | 0.18 to 21 nM | N#Cc1ccc(Cn2cncc2CCNC(=O)C2CN(Cc3ccccc3)CCN2C(=O)Cc2ccccc2)cc1 (stereo not shown) [Example 28I]
11 | 0.18 to 21 nM | N#Cc1ccc(Cn2cncc2CCNC(=O)C2CN(Cc3ccccc3)CCN2S(=O)(=O)Cc2ccccc2)cc1 (stereo not shown) [Example 28M]
12 | 0.18 to 21 nM and 0.18 to 1.5 nM | CC(C)(C)NC(=O)N1CCN(Cc2ccccc2)CC1C(=O)NCCc1cncn1Cc1ccc(C#N)cc1 (stereo not shown) [Example 28O]
13 | 0.18 to 21 nM | N#Cc1ccc(Cn2cncc2CCNC(=O)C2CN(Cc3ccccc3)CCN2C(=O)CC2CCN(C(N)=O)CC2)cc1 (stereo not shown) [Example 28Q]
14 | 0.18 to 21 nM | O=C(C1CN(Cc2ccccc2)CCN1C(=O)NC1CCCCC1)N(CCCn1ccnc1)Cc1ccccc1 (stereo not shown) [Example 28S]
15 | 0.18 to 21 nM | CC(C)(C)NC(=O)N1CCN(Cc2ccccc2)CC1C(=O)N(CCCn1ccnc1)Cc1ccccc1 (stereo not shown) [Example 28T]
16 | 0.18 to 1.5 nM | N#Cc1ccc(Cn2cncc2CCNC(=O)[C@H]2CN(Cc3ccccc3Cl)CCN2C(=O)NC2CCCCC2)cc1 [Example 28]
